Data on five compounds can be found in patent US7863033B2, “Lactobacillus living body activating Lactobacillus preparation and preventive or therapeutic agent for living body infection” (BHPH Company Limited, priority 2003, dated 2011).

Where two headings read alike, the source gives them in different places.

The subject of one series is bacteria in plaque. Put plainly: Live cell counts in plaque soaked in disinfectant (Test Example 4). The following applies: 60 minutes of immersion. It counts as cell-based.
A further series has as its system mouse skin wound. Put plainly: Recovery of mouse skin wounds with bactericidal disinfectants (Test Example 5). It counts as in vivo.
A further series relates to acute colitis patients. The experiment in a line: Treatment of acute infection patients (Example 15, Comparative Example 1). The following applies: method A: Cefaclor alone 1000 mg/day for 5 days.
Series [1] has as its system acute bronchitis patients. The settings on record: method A: Cefaclor alone; cited from earlier work.
In series [2] the test system is acute cystitis patients. The following applies: method A: Cephalexin alone; cited from earlier work.
The subject of a further series is conjunctivitis patients. Put plainly: Treatment of acute infection patients (Example 15, Comparative Example 1). The settings on record: epidemic conjunctivitis; method A: Ofloxacin alone.
The test system of series [3] is acute cystitis patients. Described as above. The following applies: method A: minocycline alone 1000 mg/day for 5 days.
Setting [4] is: applied every morning and night.

Turning to `CC(O)C(=O)O.CCOc1ccc2nc3cc(N)ccc3c(N)c2c1` [Acrinol], the “survival of bacteria inside the plaque” value in the series on bacteria in plaque is on record as “half of the cells surviving”. For the same compound, in the series on mouse skin wound (setting [4]), the “Recovery: Complete recovery (coat regrown)” value came to 40 days and the “Recovery: Skin close to original thickness” value came to 15 days. Further, the “Recovery: Thin skin overall” value in the series on mouse skin wound (applied every morning and night to about 1 cm^2 peeled mouse skin) was found to be 5 days.

Consider `N[C@@H](C(=O)N[C@@H]1C(=O)N2C(C(=O)O)=C(Cl)CS[C@H]12)c1ccccc1` [Cefaclor], for which the “Upset of intestinal flora” value (with acute colitis patients; in series [1]) was “++” each time. For the compound `CC1=C(C(=O)O)N2C(=O)[C@@H](NC(=O)[C@H](N)c3ccccc3)[C@H]2SC1` [Cephalexin], in the series with acute cystitis patients [2], the “Upset of intestinal flora” value was “++”. For `CC1COc2c(N3CCN(C)CC3)c(F)cc3c(=O)c(C(=O)O)cn1c23` (stereo not drawn) [Ofloxacin], the “Upset of intestinal flora” value in the series with conjunctivitis patients was “−”.

Regarding `CN(C)c1ccc(O)c2c1C[C@H]1C[C@H]3[C@H](N(C)C)C(O)=C(C(N)=O)C(=O)[C@@]3(O)C(O)=C1C2=O` [minocycline], the “Upset of intestinal flora” value in the series with acute cystitis patients [3] was “++”.
